Assay results: patent US11945822B2, “Pyrazolo-triazine and/or pyrazolo-pxrimidine derivatives as selective inhibitor of cyclin dependent kinase” (QURIENT CO., LTD., priority 2018, dated 2024)
Where two headings read alike, the source gives them in different places.

What was measured:
H460 = experiment: Cellular H460 viability assay (CellTiter-Glo, 72 hours); format: cell-based; conditions: Homo sapiens, NCI-H460
Procedure: All cell lines were routinely tested for mycoplasma.
The effect of the CDK7 inhibitor to inhibit the growth of target cancer cells was evaluated through the 72 hours time period of viability assay. Briefly, the candidate cell line ware plated in 96 well plate at the following density of cells respectively. […] DMSO solvent without compound served as a control and final DMSO concentration less than 0.1%. After 72 hours of incubation at 37° C., 5% CO2 incubator, cells were analyzed for the viability using the CellTiter-Glo Luminescent Cell Viability Assay (Promega, Cat #G7570). All viability assays were performed in duplicate and Luminescence was read using an Envision (Perkin Elmer, USA). Data was analyzed using XLfit software.

CDK2/Cyclin A = biological target: T1, CDK2/Cyclin A (Homo sapiens, UniProt P24941); experiment: Enzymatic assay for CDK2 (FRET based LANCE Ultra kinase assay); format: biochemical
T1 construct: purchased Invitrogen PV6290
Procedure: (§1) Enzymatic Binding Assay Protocol for CDK1, CDK2, CDK5 and CDK7
(§2) Inhibition activity of the respective compound on CDK kinase under Km value of ATP was tested in FRET based The LANCE® Ultra kinase assay (Perkin Elmer), which uses a ULight™-labeled peptide substrate and an appropriate Europium-labeled anti-phospho-antibody. Test compounds were made with DMSO solutions, and then 4-fold serial dilutions for 8 doses were prepared using automated liquid handler (POD810, LABCYTE) and 80 nL/well of diluted compound solutions were added into the 384-well plates (Greiner, Cat #784075). And then 68 nM of ULight-MBP peptide (Perkin Elmer, Cat #TRF0109-M) and 5 ul/well of ATP (Sigma, Cat #A7699) were added to the plate. After 1 min centrifugation at 1000 rpm, Purified CDKs/Cyclin complex were added following concentrations respectively. 24 uM for CDK1/Cyclin B (Invitrogen, Cat #PR4768C), 22 uM for CDK2/Cyclin A (Invitrogen, Cat #PV6290), 10 uM for CDK5/p25 (Invitrogen, Cat #PR8543B) and […] for CDK7/Cyclin H/MNAT1 (Invitrogen, Cat #PR6749B) were added to the each corresponding plate for CDK1, CDK2, CDK5 and CDK7. Incubate at 23° C. for 60 min and then Eu-labeled anti-phospho-Myelin Basic Protein (PE, Cat #TRF0201-M) and EDTA (Invitrogen, Cat #15575038) mixture in Lance Detection Buffer (Perkin Elmer, Cat #CR97100) was added in each well. After additional incubation at 23° C. for 60 min, test articles were measured the fluorescence using Envision leader (Perkin Elmer, USA) [Laser as excitation light; […] as the first and the second emission filter]. Data was analyzed using XL Fit software.

CDK7/Cyclin H/MNAT1 = biological target: T2, CDK7/Cyclin H/MNAT1 (Homo sapiens, UniProt P50613); experiment: Enzymatic assay for CDK7 (FRET based LANCE Ultra kinase assay); format: biochemical
T2 construct: purchased Invitrogen PR6749B
T2 sequence (P50613 whole entry): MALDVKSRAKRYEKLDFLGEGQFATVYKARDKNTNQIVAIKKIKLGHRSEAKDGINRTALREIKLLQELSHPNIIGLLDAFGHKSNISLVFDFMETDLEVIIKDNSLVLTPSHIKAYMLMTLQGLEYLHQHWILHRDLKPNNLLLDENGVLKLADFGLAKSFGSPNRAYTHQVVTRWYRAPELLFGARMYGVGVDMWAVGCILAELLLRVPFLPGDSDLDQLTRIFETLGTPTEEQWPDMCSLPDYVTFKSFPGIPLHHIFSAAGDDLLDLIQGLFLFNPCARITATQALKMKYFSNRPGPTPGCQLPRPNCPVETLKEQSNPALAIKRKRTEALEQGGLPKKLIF
T2 sequence (P51946 whole entry partner): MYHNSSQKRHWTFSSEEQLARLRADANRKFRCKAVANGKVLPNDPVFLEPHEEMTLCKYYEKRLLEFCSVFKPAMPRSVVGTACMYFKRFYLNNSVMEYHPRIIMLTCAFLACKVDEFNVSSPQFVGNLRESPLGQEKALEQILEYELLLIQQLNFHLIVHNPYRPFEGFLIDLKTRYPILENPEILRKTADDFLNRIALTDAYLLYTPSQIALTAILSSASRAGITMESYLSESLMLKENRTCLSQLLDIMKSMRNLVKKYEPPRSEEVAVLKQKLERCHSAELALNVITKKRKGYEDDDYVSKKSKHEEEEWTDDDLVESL
T2 sequence (P51948 whole entry partner): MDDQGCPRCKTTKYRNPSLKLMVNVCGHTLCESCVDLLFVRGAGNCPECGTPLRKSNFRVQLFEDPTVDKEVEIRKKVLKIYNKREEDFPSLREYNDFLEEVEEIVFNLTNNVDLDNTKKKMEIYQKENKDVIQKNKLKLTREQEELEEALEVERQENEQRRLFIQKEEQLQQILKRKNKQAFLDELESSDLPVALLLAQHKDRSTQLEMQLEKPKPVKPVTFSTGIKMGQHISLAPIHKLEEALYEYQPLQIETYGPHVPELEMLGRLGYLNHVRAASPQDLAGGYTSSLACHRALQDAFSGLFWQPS
Procedure: as §1
Inhibition activity of the respective compound on CDK kinase under Km value of ATP was tested in FRET based The LANCE® Ultra kinase assay (Perkin Elmer), which uses a ULight™-labeled peptide substrate and an appropriate Europium-labeled anti-phospho-antibody. […] After 1 min centrifugation at 1000 rpm, Purified CDKs/Cyclin complex were added following concentrations respectively. […] Data was analyzed using XL Fit software.

CDK5/p25 = biological target: T3, CDK5/p25 (Homo sapiens, UniProt Q00535); experiment: Enzymatic assay for CDK5 (FRET based LANCE Ultra kinase assay); format: biochemical
T3 construct: purchased Invitrogen PR8543B
T3 sequence (Q00535 whole entry): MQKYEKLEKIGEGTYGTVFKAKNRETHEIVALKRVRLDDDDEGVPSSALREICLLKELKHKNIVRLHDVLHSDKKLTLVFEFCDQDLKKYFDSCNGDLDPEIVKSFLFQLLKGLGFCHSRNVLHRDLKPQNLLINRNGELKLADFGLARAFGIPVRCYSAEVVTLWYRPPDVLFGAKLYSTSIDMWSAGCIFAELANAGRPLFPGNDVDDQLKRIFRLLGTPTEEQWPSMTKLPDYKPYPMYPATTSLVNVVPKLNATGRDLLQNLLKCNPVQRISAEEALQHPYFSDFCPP
T3 sequence (Q15078 99-307 partner limits assumed): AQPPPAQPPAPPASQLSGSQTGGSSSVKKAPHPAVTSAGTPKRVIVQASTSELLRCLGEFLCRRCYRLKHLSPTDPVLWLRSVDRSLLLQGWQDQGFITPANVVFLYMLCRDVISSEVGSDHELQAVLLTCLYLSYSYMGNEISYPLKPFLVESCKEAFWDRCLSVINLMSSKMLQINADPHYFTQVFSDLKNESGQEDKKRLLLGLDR
Procedure: as §1, §2

CDK1/Cyclin B = biological target: T4, CDK1/Cyclin B (Homo sapiens, UniProt P06493); experiment: Enzymatic assay for CDK1 (FRET based LANCE Ultra kinase assay); format: biochemical
T4 construct: purchased Invitrogen PR4768C
T4 sequence (P06493 whole entry): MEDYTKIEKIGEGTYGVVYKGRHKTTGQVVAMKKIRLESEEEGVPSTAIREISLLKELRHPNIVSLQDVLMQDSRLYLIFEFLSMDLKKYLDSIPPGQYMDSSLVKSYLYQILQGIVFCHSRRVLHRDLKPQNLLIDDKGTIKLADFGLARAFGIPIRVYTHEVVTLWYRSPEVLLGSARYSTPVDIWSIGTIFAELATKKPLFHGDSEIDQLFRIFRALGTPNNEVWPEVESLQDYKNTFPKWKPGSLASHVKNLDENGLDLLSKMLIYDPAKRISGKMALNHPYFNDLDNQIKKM
T4 sequence (P14635 whole entry partner): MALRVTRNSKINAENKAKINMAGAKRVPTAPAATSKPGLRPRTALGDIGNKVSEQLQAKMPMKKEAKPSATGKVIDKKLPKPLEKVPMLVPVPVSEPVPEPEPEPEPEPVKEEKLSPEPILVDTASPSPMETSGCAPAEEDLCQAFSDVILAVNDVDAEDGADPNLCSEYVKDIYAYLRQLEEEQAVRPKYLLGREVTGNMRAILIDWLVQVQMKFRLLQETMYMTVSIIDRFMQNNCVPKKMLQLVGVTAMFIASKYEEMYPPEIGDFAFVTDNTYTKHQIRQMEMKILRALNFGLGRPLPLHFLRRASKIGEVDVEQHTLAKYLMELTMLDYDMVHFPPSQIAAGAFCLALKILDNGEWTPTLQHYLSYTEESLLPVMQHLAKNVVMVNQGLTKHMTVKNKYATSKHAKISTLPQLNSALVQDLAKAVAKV
Procedure: as §1, §2

[1] = read-out: CDK2 enzymatic activity (IC50 range)
[2] = read-out: CDK7 enzymatic activity (IC50 range)
[3] = read-out: CDK5 enzymatic activity (IC50 range)
[4] = read-out: CDK1 enzymatic activity (IC50 range)

Row | Structure (SMILES) | IC50 (H460) | IC50 (CDK2/Cyclin A; [1]) | CDK1/CDK7: Selectivity of CDK7 inhibition over CDK1 inhibition (CDK7/Cyclin H/MNAT1; CDK7 over CDK1) | CDK2/CDK7: Selectivity of CDK7 inhibition over CDK2 inhibition (CDK7/Cyclin H/MNAT1; CDK7 over CDK2) | CDK5/CDK7: Selectivity of CDK7 inhibition over CDK5 inhibition (CDK7/Cyclin H/MNAT1; CDK7 over CDK5) | IC50 (CDK7/Cyclin H/MNAT1; [2]) | IC50 (CDK5/p25; [3]) | IC50 (CDK1/Cyclin B; [4]) | IC50 (CDK2/Cyclin A; read-out: CDK2 enzymatic activity (IC50 activity range)) | CDK1/CDK7: Selectivity of CDK7 inhibition over CDK1 inhibition (CDK7/Cyclin H/MNAT1; CDK1/CDK7) | CDK2/CDK7: Selectivity of CDK7 inhibition over CDK2 inhibition (CDK7/Cyclin H/MNAT1; CDK2/CDK7) | CDK5/CDK7: Selectivity of CDK7 inhibition over CDK5 inhibition (CDK7/Cyclin H/MNAT1; CDK5/CDK7) | IC50 (CDK7/Cyclin H/MNAT1; read-out: CDK7 enzymatic activity (IC50 activity range)) | IC50 (CDK5/p25; read-out: CDK5 enzymatic activity (IC50 activity range)) | IC50 (CDK1/Cyclin B; read-out: CDK1 enzymatic activity (IC50 activity range))
1 | CC(C)c1cnn2c(NCc3ccccc3-n3cccn3)nc(C(=O)N3CCN(C)CC3)nc12 [Compound 7] | > 10000 nM |  |  |  |  |  |  |  |  |  |  |  |  |  | 
2 | CCCNC(=O)Nc1ccccc1CNc1nc(N2CCC(N)CC2)nc2c(C(C)C)cnn12 [Compound 11] | < 1000 nM | 100 to 1000 nM | A (A=greater than 200 fold) | B (B=less than 200 fold, but greater than 20 fold) | B (B=less than 200 fold, but greater than 20 fold) | < 100 nM | 100 to 1000 nM | > 1000 nM |  |  |  |  |  |  | 
3 | CC(C)c1cnn2c(NCc3ccc(Cl)c(-n4cccn4)c3)nc(N3CCC(N)CC3)nc12 [Compound 67] | 1000 to 10000 nM | 100 to 1000 nM | B (B=less than 200 fold, but greater than 20 fold) | C (C=less than 20 fold) | C (C=less than 20 fold) | < 100 nM | 100 to 1000 nM | > 1000 nM |  |  |  |  |  |  | 
4 | Cc1cccc(-c2cc(C(C)(C)O)n(C)n2)c1CNc1nc(N2CCC(N)CC2)nc2c(C(C)C)cnn12 [Compound 259] |  |  |  |  |  |  |  |  | > 1000 nM | A (A=greater than 200 fold) | A (A=greater than 200 fold) | A (A=greater than 200 fold) | < 100 nM | > 1000 nM | > 1000 nM
5 | CC(C)c1cnn2c(NCc3ccccc3-n3cccn3)nc(C(=O)NC3CCNC3)nc12 (racemic) [Compound 8] | > 10000 nM | > 1000 nM | B (B=less than 200 fold, but greater than 20 fold) | B (B=less than 200 fold, but greater than 20 fold) | C (C=less than 20 fold) | 100 to 1000 nM | > 1000 nM | > 1000 nM |  |  |  |  |  |  | 
6 | CC(C)c1cnn2c(NCc3c[nH]c4ccccc34)nc(N3CCC(N)CC3)nc12 [Compound 28] |  | 100 to 1000 nM | B (B=less than 200 fold, but greater than 20 fold) | B (B=less than 200 fold, but greater than 20 fold) | C (C=less than 20 fold) | < 100 nM | 100 to 1000 nM | > 1000 nM |  |  |  |  |  |  | 
7 | CNC(=O)c1cccnc1CNc1nc(N2CCC(N)CC2)nc2c(C(C)(C)C)cnn12 [Compound 15] |  | > 1000 nM | A (A=greater than 200 fold) | A (A=greater than 200 fold) | B (B=less than 200 fold, but greater than 20 fold) | < 100 nM | > 1000 nM | > 1000 nM |  |  |  |  |  |  | 
8 | Cc1ccc(CNc2nc(N3CCC(N)CC3)nc3c(C(C)C)cnn23)cc1-n1cccn1 [Compound 65] | 1000 to 10000 nM | > 1000 nM | B (B=less than 200 fold, but greater than 20 fold) | B (B=less than 200 fold, but greater than 20 fold) | C (C=less than 20 fold) | < 100 nM | 100 to 1000 nM | > 1000 nM |  |  |  |  |  |  | 
9 | CC(C)c1cnn2c(NCc3ccccc3-n3cccn3)nc(-c3ccc(C4CCNCC4)cc3)nc12 [Compound 168] |  | 100 to 1000 nM | A (A=greater than 200 fold) | B (B=less than 200 fold, but greater than 20 fold) | B (B=less than 200 fold, but greater than 20 fold) | < 100 nM | 100 to 1000 nM | > 1000 nM |  |  |  |  |  |  | 
10 | CC(C)c1cnn2c(NCc3ccccc3Br)nc(N3CCC(N)CC3)nc12 [Compound 22] | < 1000 nM |  |  |  |  |  |  |  |  |  |  |  |  |  | 
11 | NC1CCN(c2nc(NCc3ccccc3-n3cccn3)n3ncc(Cl)c3n2)CC1 [Compound 29] | 1000 to 10000 nM |  |  |  |  |  |  |  |  |  |  |  |  |  | 
12 | CC(C)c1cnn2c(NCc3ccccc3-n3cccn3)nc(C3CCNCC3)nc12 [Compound 23] | < 1000 nM |  |  |  |  |  |  |  |  |  |  |  |  |  | 
13 | CC(C)c1cnn2c(NCc3cccc4cnn(C)c34)nc(N3CCC(N)CC3)nc12 [Compound 10] | < 1000 nM | 100 to 1000 nM | B (B=less than 200 fold, but greater than 20 fold) | B (B=less than 200 fold, but greater than 20 fold) | C (C=less than 20 fold) | < 100 nM | < 100 nM | 100 to 1000 nM |  |  |  |  |  |  | 
14 | CC(C)c1cnn2c(NCc3cccc4ncn(C)c34)nc(N3CCC(N)CC3)nc12 [Compound 16] | < 1000 nM | 100 to 1000 nM | B (B=less than 200 fold, but greater than 20 fold) | B (B=less than 200 fold, but greater than 20 fold) | C (C=less than 20 fold) | < 100 nM | < 100 nM | 100 to 1000 nM |  |  |  |  |  |  | 
15 | CC(C)c1cnn2c(NCc3ccccc3-c3cc4cccc(NC(=O)N(C)C)c4[nH]3)nc(N3CCC(N)CC3)nc12 [Compound 149] | < 1000 nM | < 100 nM | B (B=less than 200 fold, but greater than 20 fold) | B (B=less than 200 fold, but greater than 20 fold) | C (C=less than 20 fold) | < 100 nM | < 100 nM | 100 to 1000 nM |  |  |  |  |  |  | 
16 | N#Cc1cnn2c(NCc3ccccc3-n3cccn3)nc(N3CCC(N)CC3)nc12 [Compound 34] | 1000 to 10000 nM | 100 to 1000 nM | B (B=less than 200 fold, but greater than 20 fold) | C (C=less than 20 fold) | C (C=less than 20 fold) | < 100 nM | 100 to 1000 nM | > 1000 nM |  |  |  |  |  |  | 
